From US20120270237A9, “METHODS FOR THE IDENTIFICATION OF KINASE INTERACTING MOLECULES AND FOR THE PURIFICATION OF KINASE PROTEINS” (Cellzone AG, priority 2009, published 2012)

Columns and labels:
Experiment in all cases: Kinobeads competition binding, L-363 cell lysate
Set-up in all cases: endogenous in cells
Conditions in all cases: 10 μM free compound, L-363 lysate
CDK5 = CDK5 (Homo sapiens, UniProt Q00535)
Summary of the method: (§1)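 L-363 plasma cell leukaemia cells were treated 3 h with 20 μM MG132 before harvest. Lysate was preincubated with 10 μM free compound or DMSO, then captured on matrix bearing immobilized compound; bound proteins were eluted, SDS-PAGE separated, trypsin-digested, iTRAQ-labeled and quantified by LC-MS/MS reporter ions.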

MST2 = MST2 (Homo sapiens, UniProt Q13188)
MST2, sequence (Q13188 whole entry): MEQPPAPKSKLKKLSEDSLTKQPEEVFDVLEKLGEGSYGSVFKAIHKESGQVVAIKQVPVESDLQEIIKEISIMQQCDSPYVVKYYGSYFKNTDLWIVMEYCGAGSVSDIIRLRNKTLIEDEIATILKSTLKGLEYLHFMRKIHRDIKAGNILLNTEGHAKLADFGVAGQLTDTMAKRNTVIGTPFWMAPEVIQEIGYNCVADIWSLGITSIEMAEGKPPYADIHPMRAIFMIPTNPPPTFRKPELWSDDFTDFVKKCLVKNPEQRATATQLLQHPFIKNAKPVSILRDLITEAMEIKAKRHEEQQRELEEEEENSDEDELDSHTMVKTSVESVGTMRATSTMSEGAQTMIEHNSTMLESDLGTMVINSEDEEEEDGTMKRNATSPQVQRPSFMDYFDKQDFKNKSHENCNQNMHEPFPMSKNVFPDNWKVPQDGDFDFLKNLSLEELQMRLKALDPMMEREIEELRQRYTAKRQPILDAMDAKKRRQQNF
Summary of the method: as §1

CHK1 = CHK1 (Homo sapiens, UniProt O14757)
CHK1, sequence (O14757 whole entry): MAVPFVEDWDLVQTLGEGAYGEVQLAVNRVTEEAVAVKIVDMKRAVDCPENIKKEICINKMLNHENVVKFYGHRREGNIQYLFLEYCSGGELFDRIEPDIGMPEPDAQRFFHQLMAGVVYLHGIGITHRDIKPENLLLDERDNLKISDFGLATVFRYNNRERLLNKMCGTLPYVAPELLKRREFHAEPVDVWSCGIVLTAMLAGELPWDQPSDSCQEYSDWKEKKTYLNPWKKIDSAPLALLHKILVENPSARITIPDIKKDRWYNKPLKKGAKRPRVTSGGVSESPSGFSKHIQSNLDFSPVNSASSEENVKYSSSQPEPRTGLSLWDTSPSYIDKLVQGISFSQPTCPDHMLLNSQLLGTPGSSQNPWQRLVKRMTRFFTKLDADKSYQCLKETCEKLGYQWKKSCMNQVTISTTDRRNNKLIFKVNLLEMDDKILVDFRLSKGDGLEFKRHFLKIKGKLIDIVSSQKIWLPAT
Summary of the method: as §1

PYK2 = PYK2 (Homo sapiens, UniProt Q14289)
PYK2, sequence (Q14289 whole entry): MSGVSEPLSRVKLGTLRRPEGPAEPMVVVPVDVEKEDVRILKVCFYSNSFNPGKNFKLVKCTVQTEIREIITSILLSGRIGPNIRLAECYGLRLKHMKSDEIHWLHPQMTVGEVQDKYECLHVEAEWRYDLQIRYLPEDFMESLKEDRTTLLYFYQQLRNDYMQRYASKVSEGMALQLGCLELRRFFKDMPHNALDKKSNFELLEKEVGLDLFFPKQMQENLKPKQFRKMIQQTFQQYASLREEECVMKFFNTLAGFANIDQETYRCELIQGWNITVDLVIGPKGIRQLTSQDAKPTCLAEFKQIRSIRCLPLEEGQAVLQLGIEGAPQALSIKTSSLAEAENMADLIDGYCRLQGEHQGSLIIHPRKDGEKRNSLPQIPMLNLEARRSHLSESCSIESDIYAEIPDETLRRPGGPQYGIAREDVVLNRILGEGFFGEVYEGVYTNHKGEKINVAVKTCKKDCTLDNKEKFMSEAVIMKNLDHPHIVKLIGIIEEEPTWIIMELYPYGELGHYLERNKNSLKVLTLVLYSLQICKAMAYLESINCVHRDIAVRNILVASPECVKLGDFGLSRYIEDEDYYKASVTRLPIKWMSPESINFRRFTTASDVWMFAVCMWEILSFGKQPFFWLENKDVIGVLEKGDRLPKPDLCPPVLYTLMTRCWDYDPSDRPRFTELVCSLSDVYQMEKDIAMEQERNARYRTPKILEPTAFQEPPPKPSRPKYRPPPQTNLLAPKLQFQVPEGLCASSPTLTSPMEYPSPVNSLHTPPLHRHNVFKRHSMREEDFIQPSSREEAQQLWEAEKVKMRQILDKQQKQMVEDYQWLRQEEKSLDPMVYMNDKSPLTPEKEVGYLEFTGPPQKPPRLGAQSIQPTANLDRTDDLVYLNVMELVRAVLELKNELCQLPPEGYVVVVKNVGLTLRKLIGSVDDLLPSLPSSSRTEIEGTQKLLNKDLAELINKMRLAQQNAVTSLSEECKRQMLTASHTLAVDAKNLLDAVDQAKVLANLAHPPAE
Summary of the method: as §1

PIP5K2C = target: T1, PIP5K2C (Homo sapiens, UniProt Q8TBX8)
T1 sequence (Q8TBX8 1-421): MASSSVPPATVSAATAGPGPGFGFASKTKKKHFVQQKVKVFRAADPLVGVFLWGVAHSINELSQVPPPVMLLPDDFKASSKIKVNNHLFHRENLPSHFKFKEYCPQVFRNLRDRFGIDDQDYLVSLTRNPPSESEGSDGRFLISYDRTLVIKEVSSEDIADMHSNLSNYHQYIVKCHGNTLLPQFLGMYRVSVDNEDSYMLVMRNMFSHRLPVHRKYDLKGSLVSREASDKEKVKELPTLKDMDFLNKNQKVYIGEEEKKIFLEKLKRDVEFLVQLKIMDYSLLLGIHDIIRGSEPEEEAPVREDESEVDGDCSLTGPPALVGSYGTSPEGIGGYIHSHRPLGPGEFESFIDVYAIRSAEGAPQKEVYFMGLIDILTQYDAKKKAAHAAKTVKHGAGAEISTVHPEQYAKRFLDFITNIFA
Summary of the method: as §1

BIKE = BIKE (Homo sapiens, UniProt Q9NSY1)
BIKE, sequence (Q9NSY1 whole entry): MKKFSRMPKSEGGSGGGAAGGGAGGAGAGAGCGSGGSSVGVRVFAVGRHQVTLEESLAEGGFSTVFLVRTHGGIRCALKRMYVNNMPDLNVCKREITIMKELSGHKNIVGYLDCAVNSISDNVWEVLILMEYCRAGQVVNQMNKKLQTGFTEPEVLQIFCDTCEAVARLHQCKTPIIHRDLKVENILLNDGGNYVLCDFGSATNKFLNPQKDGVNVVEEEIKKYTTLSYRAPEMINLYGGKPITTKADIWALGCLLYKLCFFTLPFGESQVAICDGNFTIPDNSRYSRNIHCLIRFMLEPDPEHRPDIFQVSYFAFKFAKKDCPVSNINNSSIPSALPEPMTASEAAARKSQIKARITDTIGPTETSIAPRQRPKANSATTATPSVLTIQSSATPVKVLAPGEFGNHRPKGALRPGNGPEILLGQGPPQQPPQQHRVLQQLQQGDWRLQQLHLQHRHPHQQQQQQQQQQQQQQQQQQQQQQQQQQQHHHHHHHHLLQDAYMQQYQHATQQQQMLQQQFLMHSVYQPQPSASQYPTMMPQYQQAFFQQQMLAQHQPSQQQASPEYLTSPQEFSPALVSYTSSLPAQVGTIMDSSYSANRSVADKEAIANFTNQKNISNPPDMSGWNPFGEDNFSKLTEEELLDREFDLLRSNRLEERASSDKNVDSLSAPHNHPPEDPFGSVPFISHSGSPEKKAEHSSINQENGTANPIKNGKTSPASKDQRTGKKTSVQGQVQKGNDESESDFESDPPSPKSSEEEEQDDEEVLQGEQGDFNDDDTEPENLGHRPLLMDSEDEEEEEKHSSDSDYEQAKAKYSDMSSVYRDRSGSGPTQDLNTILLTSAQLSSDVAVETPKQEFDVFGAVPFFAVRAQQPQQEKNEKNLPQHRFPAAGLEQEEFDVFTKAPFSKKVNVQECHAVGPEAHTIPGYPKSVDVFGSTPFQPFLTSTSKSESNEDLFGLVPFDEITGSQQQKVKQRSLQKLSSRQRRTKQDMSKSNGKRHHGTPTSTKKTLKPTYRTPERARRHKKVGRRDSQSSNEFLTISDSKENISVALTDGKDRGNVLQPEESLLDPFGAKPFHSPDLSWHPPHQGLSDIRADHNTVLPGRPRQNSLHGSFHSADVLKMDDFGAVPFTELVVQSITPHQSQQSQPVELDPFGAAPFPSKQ
Summary of the method: as §1

MAP2K5 = target: T2, MAP2K5 (Homo sapiens, UniProt Q13163)
T2 sequence (Q13163 1-448): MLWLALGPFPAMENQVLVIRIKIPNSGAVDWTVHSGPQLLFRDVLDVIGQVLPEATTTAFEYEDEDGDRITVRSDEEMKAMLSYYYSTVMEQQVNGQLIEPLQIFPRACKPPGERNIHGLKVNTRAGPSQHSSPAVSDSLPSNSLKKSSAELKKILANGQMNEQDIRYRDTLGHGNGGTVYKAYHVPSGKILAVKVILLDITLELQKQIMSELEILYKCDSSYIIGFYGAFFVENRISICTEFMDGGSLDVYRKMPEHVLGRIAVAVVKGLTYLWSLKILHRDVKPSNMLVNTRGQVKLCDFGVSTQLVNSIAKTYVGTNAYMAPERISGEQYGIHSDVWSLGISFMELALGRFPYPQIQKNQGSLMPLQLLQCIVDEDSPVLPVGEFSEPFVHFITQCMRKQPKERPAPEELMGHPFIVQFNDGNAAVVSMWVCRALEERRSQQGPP
Summary of the method: as §1

LOK = LOK (Homo sapiens, UniProt O94804)
LOK, sequence (O94804 whole entry): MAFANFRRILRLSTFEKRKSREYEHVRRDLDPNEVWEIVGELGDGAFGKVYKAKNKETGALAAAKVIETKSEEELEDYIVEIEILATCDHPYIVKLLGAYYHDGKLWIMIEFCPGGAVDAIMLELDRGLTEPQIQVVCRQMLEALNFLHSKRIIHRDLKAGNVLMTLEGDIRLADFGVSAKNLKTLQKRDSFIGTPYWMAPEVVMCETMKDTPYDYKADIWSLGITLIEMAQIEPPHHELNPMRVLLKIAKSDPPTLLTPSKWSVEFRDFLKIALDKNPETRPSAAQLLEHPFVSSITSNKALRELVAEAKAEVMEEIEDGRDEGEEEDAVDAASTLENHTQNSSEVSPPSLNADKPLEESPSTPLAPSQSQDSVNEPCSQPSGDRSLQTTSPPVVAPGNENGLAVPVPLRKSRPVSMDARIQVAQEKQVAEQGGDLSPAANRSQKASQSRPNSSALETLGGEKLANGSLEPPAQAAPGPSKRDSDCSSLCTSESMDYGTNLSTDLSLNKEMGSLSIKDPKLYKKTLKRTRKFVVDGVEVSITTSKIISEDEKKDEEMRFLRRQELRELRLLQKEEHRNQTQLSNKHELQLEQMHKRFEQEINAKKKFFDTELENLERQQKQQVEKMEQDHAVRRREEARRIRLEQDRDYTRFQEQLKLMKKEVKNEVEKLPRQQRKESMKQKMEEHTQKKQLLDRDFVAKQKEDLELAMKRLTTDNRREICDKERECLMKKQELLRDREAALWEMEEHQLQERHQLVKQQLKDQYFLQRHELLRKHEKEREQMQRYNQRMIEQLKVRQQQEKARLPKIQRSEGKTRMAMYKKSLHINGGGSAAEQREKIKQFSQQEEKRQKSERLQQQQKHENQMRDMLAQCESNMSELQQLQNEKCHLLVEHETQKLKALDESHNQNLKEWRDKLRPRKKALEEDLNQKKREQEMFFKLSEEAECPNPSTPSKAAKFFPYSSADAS
Summary of the method: as §1

PKD2 = target: T3, PKD2 (Homo sapiens, UniProt Q9BZL6)
T3 sequence (Q9BZL6 1-878): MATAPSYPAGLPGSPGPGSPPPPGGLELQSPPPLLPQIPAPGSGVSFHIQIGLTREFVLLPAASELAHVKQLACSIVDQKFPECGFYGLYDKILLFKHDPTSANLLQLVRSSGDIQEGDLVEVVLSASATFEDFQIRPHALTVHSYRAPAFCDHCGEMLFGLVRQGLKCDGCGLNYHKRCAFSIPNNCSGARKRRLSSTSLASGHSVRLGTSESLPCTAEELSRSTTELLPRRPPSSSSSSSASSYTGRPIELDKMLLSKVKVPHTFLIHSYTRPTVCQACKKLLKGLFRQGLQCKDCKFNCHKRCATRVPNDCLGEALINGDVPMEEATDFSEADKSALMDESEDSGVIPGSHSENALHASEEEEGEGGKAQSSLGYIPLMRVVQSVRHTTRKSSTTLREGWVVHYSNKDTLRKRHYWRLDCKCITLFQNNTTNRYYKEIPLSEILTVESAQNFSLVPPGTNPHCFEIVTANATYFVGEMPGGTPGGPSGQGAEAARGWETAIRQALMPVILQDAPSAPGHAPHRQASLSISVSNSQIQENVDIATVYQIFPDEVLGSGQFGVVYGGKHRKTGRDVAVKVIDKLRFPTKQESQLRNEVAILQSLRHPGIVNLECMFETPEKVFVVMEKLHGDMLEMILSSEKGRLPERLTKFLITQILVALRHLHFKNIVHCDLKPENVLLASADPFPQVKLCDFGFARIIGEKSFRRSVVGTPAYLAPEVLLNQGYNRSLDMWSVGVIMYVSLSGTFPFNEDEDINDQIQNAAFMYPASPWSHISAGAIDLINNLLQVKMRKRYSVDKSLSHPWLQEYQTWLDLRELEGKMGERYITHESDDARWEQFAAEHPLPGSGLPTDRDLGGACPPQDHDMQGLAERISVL
Summary of the method: as §1

CDK5, sequence (Q00535 whole entry): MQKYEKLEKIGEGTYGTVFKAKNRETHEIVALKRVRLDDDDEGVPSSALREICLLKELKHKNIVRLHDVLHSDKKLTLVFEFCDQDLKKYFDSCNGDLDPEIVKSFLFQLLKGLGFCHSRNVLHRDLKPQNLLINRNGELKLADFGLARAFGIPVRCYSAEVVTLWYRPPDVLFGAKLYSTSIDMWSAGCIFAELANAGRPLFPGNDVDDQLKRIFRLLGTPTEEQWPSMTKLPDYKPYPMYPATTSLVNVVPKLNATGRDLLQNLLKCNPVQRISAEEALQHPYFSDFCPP

inhibition at 10 µM (CDK5): 96.4%
inhibition at 10 µM (MST2): 98.2%
Competition % (CHK1): 94.8%
inhibition at 10 µM (PYK2): 96.1%
inhibition at 10 µM (PIP5K2C): 92%
inhibition at 10 µM (BIKE): 97%
inhibition at 10 µM (MAP2K5): 97.5%
Competition % (LOK): 86.9%
inhibition at 10 µM (PKD2): 98%
SMILES: CS(=O)(=O)Nc1ccccc1Nc1nc(Nc2cccc(OCCN)c2)ncc1Cl [CZC31326, N-(2-(2-(3-(2-aminoethoxy)phenylamino)-5-chloropyrimidin-4-ylamino)phenyl)methanesulfonamide]
